The values below come from patent publication US9457093B2, “Solid dispersions of a ERB2 (HER2) inhibitor” (Array BioPharma Inc., priority 2011, dated 2016).

A short description of this data set: Dissolution testing at pH 6.5 in phosphate buffer at 37° C. The class given is physicochemical. Particulars: pH 6.5 phosphate buffer, about 240 minutes. As to the method:
Dissolution testing was performed at a pH of 6.5 in phosphate buffer. The solid dispersion was suspended in H2O and added directly to the buffer solution at 37° C. The dissolution profile was collected over a period of about 240 minutes. The results are in FIG. 2.
Dissolution testing was performed at a pH of 6.5 in phosphate buffer. The solid dispersion was suspended in H2O and added directly to the buffer solution at 37° C. The dissolution profile was collected over a period of about 240 minutes. The results are in FIG. 3.
Dissolution testing was performed at a pH of 6.5 in phosphate buffer. The solid dispersion was suspended in H2O and added directly to the buffer solution at 37° C. The dissolution profile was collected over a period of about 240 minutes. The results are in FIG. 4.
Dissolution testing was performed at a pH of 6.5 in phosphate buffer. The solid dispersion was suspended in H2O and added directly to the buffer solution at 37° C. The dissolution profile was collected over a period of about 240 minutes. The results are in FIG. 5.
Dissolution testing was performed at a pH of 6.5 in phosphate buffer. The solid dispersion was suspended in H2O and added directly to the buffer solution at 37° C. The dissolution profile was collected over a period of about 240 minutes. The results are in FIG. 6.
Dissolution testing was performed at a pH of 6.5 in phosphate buffer. […]

As to `Cc1cc(Nc2ncnc3ccc(NC4=NC(C)(C)CO4)cc23)ccc1Oc1ccn2ncnc2c1` [Example 12, N4-(4-([1,2,4]triazolo[1,5-α]pyridin-7-yloxy)-3-methylphenyl)-N6-(4,4-dimethyl-4,5-dihydrooxazol-2-yl)quinazoline-4,6-diamine freebase hemi-ethanolate], the “AUC for the free drug species” value is 5490 ng·h/mL and the “Cmax for the free drug species” value stood at 440 ng/mL.
